What was measured:
[1] = Partition coefficient, log P of the compound; type: physicochemical; conditions: octanol/water

Description for physchem: Dissociation constant, pKa of the compound

Row | Structure (SMILES) | pKa (physchem) | logP ([1]; read-out: LogP) | logP [1]
1 | CN1CCC(OC(c2ccccc2)c2ccccc2)CC1 | 8.9 | – | –
2 | O=C1NCN(c2ccccc2)C12CCN(CCCC(c1ccc(F)cc1)c1ccc(F)cc1)CC2 | 8.66 | 5.83 | –
3 | CN[C@H]1CC[C@@H](c2ccc(Cl)c(Cl)c2)c2ccccc21 (single isomer, unassigned) [SERTRALINE] | 9.16 | 4.3 | –
4 | c1ccc(CN(CC2=NCCN2)c2ccccc2)cc1 [ANTAZOLINE] | 10.1 | 4.24 | –
5 | COc1ccc(CCN2CCC(Nc3nc4ccccc4n3Cc3ccc(F)cc3)CC2)cc1 [ASTEMIZOLE] | 8.5 | 5.48 | –
6 | Nc1ncn([C@@H]2O[C@H](CO)[C@@H](O)[C@H]2O)c(=O)n1 [AZACITIDINE] | – | -2.17 | –
7 | CN1[C@@H]2CC[C@H]1C[C@@H](OC(c1ccccc1)c1ccccc1)C2 [BENZTROPINE] | 10 | – | –
8 | CN(Cc1cc(Br)cc(Br)c1N)C1CCCCC1 [BROMHEXINE] | 8.5 | – | –
9 | CCN(CC)CCNC(=O)c1cc(Br)c(N)cc1OC [BROMOPRIDE] | 9.35 | – | –
10 | CN(C)CCCN1c2ccccc2Sc2ccc(Cl)cc21 [CHLORPROMAZINE] | – | 5.19 | –
11 | CN(C)CC/C=C1/c2ccccc2Sc2ccc(Cl)cc21 [CHLORPROTHIXENE] | 8.84 | 5.18 | –
12 | C(=C\c1ccccc1)/CN1CCN(C(c2ccccc2)c2ccccc2)CC1 [CINNARIZINE] | 7.47 | – | –
13 | COc1cc(N)c(Cl)cc1C(=O)NC1CCN(CCCOc2ccc(F)cc2)CC1OC (stereo not given) [CISAPRIDE] | 7.9 | – | –
14 | COc1cc(N)c(Cl)cc1C(=O)NC1CCN(Cc2ccccc2)CC1 [CLEBOPRIDE] | 8.59 | 2.72 | –
15 | CN1CCN(C2=Nc3cc(Cl)ccc3Nc3ccccc32)CC1 [CLOZAPINE] | – | 3.42 | –
16 | C[C@H]1[C@H]2Cc3ccc(O)cc3[C@]1(C)CCN2CC1CC1 [CYCLAZOCINE] | 9.38 | – | 3.31
17 | CN1CCC(=C2c3ccccc3C=Cc3ccccc32)CC1 [CYPROHEPTADINE] | 8.87 | – | –
18 | CCCCOc1cc(C(=O)NCCN(CC)CC)c2ccccc2n1 [DIBUCAINE] | 8.85 | – | –
19 | O=c1[nH]c2ccccc2n1CCCN1CCC(n2c(=O)[nH]c3cc(Cl)ccc32)CC1 [DOMPERIDONE] | – | 4.05 | –
20 | CN(C)CC/C=C1\c2ccccc2COc2ccccc21 [DOXEPIN] | – | 4.01 | –
21 | CCOC(=O)c1cncn1[C@H](C)c1ccccc1 [ETOMIDATE] | 4.5 | 3.05 | –
22 | CC(NCCC(c1ccccc1)c1ccccc1)c1ccccc1 (stereo not given) [FENDILINE] | 9.04 | 4.89 | –
23 | Cc1c(-c2ccccc2)oc2c(C(=O)OCCN3CCCCC3)cccc2c1=O [FLAVOXATE] | 7.3 | – | –
24 | Fc1ccc(C(c2ccc(F)cc2)N2CCN(C/C=C/c3ccccc3)CC2)cc1 [FLUNARIZINE] | 7.71 | 6.42 | –
25 | O=C(CCCN1CCC(O)(c2ccc(Cl)cc2)CC1)c1ccc(F)cc1 [HALOPERIDOL] | – | 3.23 | –

Row | Structure (SMILES) | pKa (physchem) | logP ([1]; read-out: LogP) | logP [1]
26 | COc1ccc2c(c1)[nH]c1c(C)nccc12 [HARMINE] | 7.5 | – | –
27 | CN1CCC(=C2c3ccccc3CC(=O)c3sccc32)CC1 [KETOTIFEN] | 8.24 | 3.56 | –
28 | CNCCCC12CCC(c3ccccc31)c1ccccc12 [MAPROTILINE] | – | 4.5 | –
29 | CNC1(C)C2CCC(C2)C1(C)C (stereo not given) [MECAMYLAMINE] | 11.2 | – | –
30 | CC12CC3CC(C)(C1)CC(N)(C3)C2 [MEMANTINE] | 10.4 | – | –
31 | CC(CN(C)C)CN1c2ccccc2Sc2ccccc21 (stereo not given) [METHYLPROMAZINE] | 9.11 | 4.81 | –
32 | COCC(=O)O[C@]1(CCN(C)CCCc2nc3ccccc3[nH]2)CCc2cc(F)ccc2[C@@H]1C(C)C [MIBEFRADIL] | – | – | 3.86
33 | COc1ccc2c(c1OC)C(=O)O[C@@H]2[C@H]1c2c(cc3c(c2OC)OCO3)CCN1C [NOSCAPINE] | 6.2 | – | –
34 | Cc1ccccc1C(OCCN(C)C)c1ccccc1 (stereo not given) [ORPHENADRINE] | 8.4 | – | –
35 | NCCc1cc(O)c(O)cc1O [OXIDOPAMINE] | 10.3 | – | –
36 | COc1ccc(Cc2nccc3cc(OC)c(OC)cc23)cc1OC [PAPAVERINE] | 6.25 | 2.93 | –
37 | N#Cc1ccc2c(c1)N(CCCN1CCC(O)CC1)c1ccccc1S2 [PERICIAZINE] | 8.76 | – | –
38 | O=c1[nH]c2ccccc2n1C1CCN(CCCC(c2ccc(F)cc2)c2ccc(F)cc2)CC1 [PIMOZIDE] | 8.63 | – | –
39 | NC(=O)C1(N2CCCCC2)CCN(CCCC(=O)c2ccc(F)cc2)CC1 [PIPAMPERONE] | 8.28 | – | –
40 | CN(C)CCCN1c2ccccc2Sc2ccccc21 [PROMAZINE] | 9.34 | – | –
41 | COc1ccc(CN(CCN(C)C)c2ccccn2)cc1 [PYRILAMINE] | 8.92 | – | –
42 | COC(=O)[C@H]1[C@H]2C[C@@H]3c4[nH]c5cc(OC)ccc5c4CCN3C[C@H]2C[C@@H](OC(=O)c2cc(OC)c(OC)c(OC)c2)[C@@H]1OC [RESERPINE] | 6.6 | 3.72 | –
43 | Cc1nc2sccn2c(=O)c1CCN1CCC(=C(c2ccc(F)cc2)c2ccc(F)cc2)CC1 [RITANSERIN] | 8.2 | – | –
44 | CCN1CCCC1CNC(=O)c1cc(S(N)(=O)=O)ccc1OC (stereo not given) [SULPIRIDE] | – | 0.42 | –
45 | CC(C)(C)c1ccc(C(O)CCCN2CCC(C(O)(c3ccccc3)c3ccccc3)CC2)cc1 (stereo not given) [TERFENADINE] | 8.6 | – | –
46 | CCCCNc1ccc(C(=O)OCCN(C)C)cc1 [TETRACAINE] | 8.39 | 3.73 | –
47 | COc1cccc([C@@]2(O)CCCC[C@@H]2CN(C)C)c1 [TRAMADOL] | 9.37 | – | –
48 | O[C@@](CCN1CCCCC1)(c1ccccc1)C1CCCCC1 [TRIHEXYPHENIDYL] | 8.7 | – | –
49 | Cc1ccc(C(=CCN2CCCC2)c2ccccn2)cc1 [TRIPROLIDINE] | 9.69 | 3.47 | –

From ChEMBL document CHEMBL1140694, “Identification of new functional inhibitors of acid sphingomyelinase using a structure-property-activity relation model” (J Med Chem, 2008)
